From patent US20250129430A1, “HIGH ATP-AFFINITY PROTEIN AS THERAPEUTIC TARGET FOR INTRACTABLE CANCER MOLECULAR SUBTYPES AND INHIBITOR THEREOF” (VeraVerse Co., Ltd., priority 2021, published 2025)

What follows are molecules tested on AGS (assay: Cell viability drug screen, 12-point dose-response AUC). Details: AGS cells (non-SEM subtype); 72 hours.
Type: cell-based, human
Procedure: (§1) An FDA-approved small-molecule pharmacological compound (#L1300) and an anticancer compound for research (#L2000) were purchased from Selecckchem and a 10 mM solution was prepared in DMSO. A total of 1,345 compounds were tested the cell viability of the seven EMT gastric cancer cell lines.
(§2) Cells cultured for cell-based drug assay were inoculated into a 96-well white optical plate (Corning) at 5×10^3 cells per well. After 24 hours after inoculation, a 2.5 MJT (primary screen) or a half-log 12-serial diluent (secondary screen) of the pharmacological compound contained in DMSO is added to the cells with a robot using a BioMek FXp liquid processor (Beckman) to add to the cells at 50 mM. The final drug concentration in the 5 ns range and the DMSO specification control (0.5%) were calculated. The cells were then further incubated at 37° C. in a 5% CO2 incubator for 72 hours prior to measuring cell viability using the extra-GLO assay kit (Promega). The luminescent properties were measured after 15 min incubation at room temperature using a plate stacker equipped with a plate stacker. The normalized viability for the DMSO-based control was measured to generate a cell line-specific 12-point dose-response curve for each pharmacological compound, and then the area under the curve (AUC) was calculated using a trapezoidal method. […] The results of the repeated experiments were averaged to generate AUC values for each cell line for each compound.
For `CC(C)[C@H](C(=O)Nc1ccc(C(=O)NO)cc1)c1ccccc1` [AR-42 (HDAC-42), AR-42], the “Average Area Under the Viability Curve (AUC), AUC norm value” (from here on “Average Area Under the Viability Curve”) was −1.186.

These molecules were tested on Hs746T in the same assay as above. Details: Hs746T cells (SEM subtype); 72 hours.
Type: cell-based, human
Procedure: as §1, §2
`CC(C)[C@H](C(=O)Nc1ccc(C(=O)NO)cc1)c1ccccc1` [AR-42 (HDAC-42), AR-42] was tested, and the “Average Area Under the Viability Curve” value was 0.3259.

These molecules were tested on KATO3 in the same assay as above. Details: KATO3 cells; 72 hours.
Type: cell-based, human
Procedure: as §1, §2
With `CC(C)[C@H](C(=O)Nc1ccc(C(=O)NO)cc1)c1ccccc1` [AR-42 (HDAC-42), AR-42] the “Average Area Under the Viability Curve” value was 0.7324.

What follows are molecules tested on MKN1 in the same assay as above. Details: MKN1 cells; 72 hours.
Type: cell-based, human
Procedure: as §1, §2
With `CC(C)[C@H](C(=O)Nc1ccc(C(=O)NO)cc1)c1ccccc1` [AR-42 (HDAC-42), AR-42] the “Average Area Under the Viability Curve” value was 0.9532.

Each molecule was assayed on MKN28 in the same assay as above. Details: MKN28 cells; 72 hours.
Type: cell-based, human
Procedure: as §1, §2
In the case of `CC(C)[C@H](C(=O)Nc1ccc(C(=O)NO)cc1)c1ccccc1` [AR-42 (HDAC-42), AR-42], the “Average Area Under the Viability Curve” value is reported as 0.07777.

Each molecule was assayed on MKN45 in the same assay as above. Details: MKN45 cells (non-SEM subtype); 72 hours.
Type: cell-based, human
Procedure: as §1, §2
For `CC(C)[C@H](C(=O)Nc1ccc(C(=O)NO)cc1)c1ccccc1` [AR-42 (HDAC-42), AR-42], the “Average Area Under the Viability Curve” value was 1.962.

The molecules below were run on MKN74 in the same assay as above. Details: MKN74 cells; 72 hours.
Type: cell-based, human
Procedure: as §1, §2
With `CC(C)[C@H](C(=O)Nc1ccc(C(=O)NO)cc1)c1ccccc1` [AR-42 (HDAC-42), AR-42] the “Average Area Under the Viability Curve” value was 0.1789.

These molecules were tested on NCC19 in the same assay as above. Details: NCC19 cells; 72 hours.
Type: cell-based, human
Procedure: as §1, §2
In the case of `CC(C)[C@H](C(=O)Nc1ccc(C(=O)NO)cc1)c1ccccc1` [AR-42 (HDAC-42), AR-42], the “Average Area Under the Viability Curve” value is reported as 1.026.

Each molecule was assayed on NCC20 in the same assay as above. Details: NCC20 cells; 72 hours.
Type: cell-based, human
Procedure: as §1, §2
For `CC(C)[C@H](C(=O)Nc1ccc(C(=O)NO)cc1)c1ccccc1` [AR-42 (HDAC-42), AR-42], the “Average Area Under the Viability Curve” value was 0.06736.

These molecules were tested on NCC24 in the same assay as above. Details: NCC24 cells; 72 hours.
Type: cell-based, human
Procedure: as §1, §2
For `CC(C)[C@H](C(=O)Nc1ccc(C(=O)NO)cc1)c1ccccc1` [AR-42 (HDAC-42), AR-42], the “Average Area Under the Viability Curve” value was −0.6217.

What follows are molecules tested on NCC59 in the same assay as above. Details: NCC59 cells; 72 hours.
Type: cell-based, human
Procedure: as §1, §2
With `CC(C)[C@H](C(=O)Nc1ccc(C(=O)NO)cc1)c1ccccc1` [AR-42 (HDAC-42), AR-42] the “Average Area Under the Viability Curve” value was 2.102.

The molecules below were run on NCI_N87 in the same assay as above. Details: NCI_N87 cells; 72 hours.
Type: cell-based, human
Procedure: as §1, §2
With `CC(C)[C@H](C(=O)Nc1ccc(C(=O)NO)cc1)c1ccccc1` [AR-42 (HDAC-42), AR-42] the “Average Area Under the Viability Curve” value was −0.1344.

Each molecule was assayed on OCUM1 in the same assay as above. Details: OCUM1 cells; 72 hours.
Type: cell-based, human
Procedure: as §1, §2
`CC(C)[C@H](C(=O)Nc1ccc(C(=O)NO)cc1)c1ccccc1` [AR-42 (HDAC-42), AR-42] was tested, and the “Average Area Under the Viability Curve” value was −0.3936.

These molecules were tested on SK4 in the same assay as above. Details: SK4 cells (SEM subtype); 72 hours.
Type: cell-based, human
Procedure: as §1, §2
For `CC(C)[C@H](C(=O)Nc1ccc(C(=O)NO)cc1)c1ccccc1` [AR-42 (HDAC-42), AR-42], the “Average Area Under the Viability Curve” value was −0.3617.

Each molecule was assayed on SNU16 in the same assay as above. Details: SNU16 cells; 72 hours.
Type: cell-based, human
Procedure: as §1, §2
`CC(C)[C@H](C(=O)Nc1ccc(C(=O)NO)cc1)c1ccccc1` [AR-42 (HDAC-42), AR-42] was tested, and the “Average Area Under the Viability Curve” value was −1.427.

Each molecule was assayed on SNU1750 in the same assay as above. Details: SNU1750 cells (SEM subtype); 72 hours.
Type: cell-based, human
Procedure: as §1, §2
With `CC(C)[C@H](C(=O)Nc1ccc(C(=O)NO)cc1)c1ccccc1` [AR-42 (HDAC-42), AR-42] the “Average Area Under the Viability Curve” value was −1.401.

Each molecule was assayed on SNU1967 in the same assay as above. Details: SNU1967 cells; 72 hours.
Type: cell-based, human
Procedure: as §1, §2
`CC(C)[C@H](C(=O)Nc1ccc(C(=O)NO)cc1)c1ccccc1` [AR-42 (HDAC-42), AR-42] was tested, and the “Average Area Under the Viability Curve” value was −0.9137.

These molecules were tested on SNU1 in the same assay as above. Details: SNU1 cells; 72 hours.
Type: cell-based, human
Procedure: as §1, §2
With `CC(C)[C@H](C(=O)Nc1ccc(C(=O)NO)cc1)c1ccccc1` [AR-42 (HDAC-42), AR-42] the “Average Area Under the Viability Curve” value was −0.3147.

Each molecule was assayed on SNU216 in the same assay as above. Details: SNU216 cells (non-SEM subtype); 72 hours.
Type: cell-based, human
Procedure: as §1, §2
In the case of `CC(C)[C@H](C(=O)Nc1ccc(C(=O)NO)cc1)c1ccccc1` [AR-42 (HDAC-42), AR-42], the “Average Area Under the Viability Curve” value is reported as 0.

Each molecule was assayed on SNU484 in the same assay as above. Details: SNU484 cells (SEM subtype); 72 hours.
Type: cell-based, human
Procedure: as §1, §2
In the case of `CC(C)[C@H](C(=O)Nc1ccc(C(=O)NO)cc1)c1ccccc1` [AR-42 (HDAC-42), AR-42], the “Average Area Under the Viability Curve” value is reported as 0.127.

Each molecule was assayed on SNU601 in the same assay as above. Details: SNU601 cells; 72 hours.
Type: cell-based, human
Procedure: as §1, §2
In the case of `CC(C)[C@H](C(=O)Nc1ccc(C(=O)NO)cc1)c1ccccc1` [AR-42 (HDAC-42), AR-42], the “Average Area Under the Viability Curve” value is reported as 1.874.

What follows are molecules tested on SNU620 in the same assay as above. Details: SNU620 cells; 72 hours.
Type: cell-based, human
Procedure: as §1, §2
With `CC(C)[C@H](C(=O)Nc1ccc(C(=O)NO)cc1)c1ccccc1` [AR-42 (HDAC-42), AR-42] the “Average Area Under the Viability Curve” value was −1.197.

What follows are molecules tested on SNU638 in the same assay as above. Details: SNU638 cells; 72 hours.
Type: cell-based, human
Procedure: as §1, §2
`CC(C)[C@H](C(=O)Nc1ccc(C(=O)NO)cc1)c1ccccc1` [AR-42 (HDAC-42), AR-42] was tested, and the “Average Area Under the Viability Curve” value was −0.7804.

The molecules below were run on SNU668 in the same assay as above. Details: SNU668 cells (SEM subtype); 72 hours.
Type: cell-based, human
Procedure: as §1, §2
`CC(C)[C@H](C(=O)Nc1ccc(C(=O)NO)cc1)c1ccccc1` [AR-42 (HDAC-42), AR-42] was tested, and the “Average Area Under the Viability Curve” value was 0.2515.

What follows are molecules tested on SNU719 in the same assay as above. Details: SNU719 cells; 72 hours.
Type: cell-based, human
Procedure: as §1, §2
For `CC(C)[C@H](C(=O)Nc1ccc(C(=O)NO)cc1)c1ccccc1` [AR-42 (HDAC-42), AR-42], the “Average Area Under the Viability Curve” value was 2.169.

Each molecule was assayed on YCC11 in the same assay as above. Details: YCC11 cells (SEM subtype); 72 hours.
Type: cell-based, human
Procedure: as §1, §2
For `CC(C)[C@H](C(=O)Nc1ccc(C(=O)NO)cc1)c1ccccc1` [AR-42 (HDAC-42), AR-42], the “Average Area Under the Viability Curve” value was −0.3298.

Each molecule was assayed on YCC2 in the same assay as above. Details: YCC2 cells; 72 hours.
Type: cell-based, human
Procedure: as §1, §2
For `CC(C)[C@H](C(=O)Nc1ccc(C(=O)NO)cc1)c1ccccc1` [AR-42 (HDAC-42), AR-42], the “Average Area Under the Viability Curve” value was −0.00569.

What follows are molecules tested on YCC3 in the same assay as above. Details: YCC3 cells; 72 hours.
Type: cell-based, human
Procedure: as §1, §2
For `CC(C)[C@H](C(=O)Nc1ccc(C(=O)NO)cc1)c1ccccc1` [AR-42 (HDAC-42), AR-42], the “Average Area Under the Viability Curve” value was 0.6875.

These molecules were tested on FU97 in the same assay as above. Details: FU97 cells; 72 hours.
Type: cell-based, human
Set-up: Average Area Under the Viability Curve (AUC), AUC norm value: scale not given here
Procedure: Cells cultured for cell-based drug assay were inoculated into a 96-well white optical plate (Corning) at 5×10^3 cells per well. After 24 hours after inoculation, a 2.5 MJT (primary screen) or a half-log 12-serial diluent (secondary screen) of the pharmacological compound contained in DMSO is added to the cells with a robot using a BioMek FXp liquid processor (Beckman) to add to the cells at 50 mM. The final drug concentration in the 5 ns range and the DMSO specification control (0.5%) were calculated. The cells were then further incubated at 37° C. in a 5% CO2 incubator for 72 hours prior to measuring cell viability using the extra-GLO assay kit (Promega). The luminescent properties were measured after 15 min incubation at room temperature using a plate stacker equipped with a plate stacker. The normalized viability for the DMSO-based control was measured to generate a cell line-specific 12-point dose-response curve for each pharmacological compound, and then the area under the curve (AUC) was calculated using a trapezoidal method.
For `CC(C)[C@H](C(=O)Nc1ccc(C(=O)NO)cc1)c1ccccc1` [AR-42 (HDAC-42), AR-42], the “Average Area Under the Viability Curve” value was −1.358.
